Literature values, collected in patent US20240344094A1, “METHODS AND COMPOSITIONS USEFUL FOR THE PRODUCTION OF OLEFINIC ESTER” (THE REGENTS OF THE UNIVERSITY OF CALIFORNIA, priority 2021, published 2024).

C=C(C)CCO [Isoprenol, 3-methyl-3-buten-1-ol]
solubility in water (20° in water): about 90 g/L

CC(=O)OCCC(C)C [isoamyl acetate]
solubility limit in water (water): ~10000 µg/mL
